Laboratory results from patent US4721715A, “Derivatives of 4-(arylpiperazinyl-ethylaminoethoxy) phenol useful for effecting hypolipidemic therapy or cardiovascular therapy” (Societe Cortial, S.A., priority 1984, dated 1988).
Where a name gives a salt, the structure may show the parent alone.

Key:
[1] = tested on: mice; test: Toxicity, oral administration to mice; format: in vivo; conditions: oral dose of 300 mg/kg
[2] = tested on: mice; test: Toxicity, intraperitoneal administration to mice
[3] = tested on: platelet aggregation; test: Platelet anti-aggregation activity: sodium arachidonate-induced aggregation in rabbit plasma with a high platelet content; format: cell-based; conditions: Oryctolagus cuniculus, 50 mcg/ml sodium arachidonate; for inhibition at 5 µg/mL: 5 mcg/ml
Description: In the presence of aspirin, this inhibition was 100% in a concentration of 2.5 mcg/ml COR 2860 and a concentration of 5 mcg/ml COR 2864. In the absence of aspirin, the inhibition was 100% with a concentration of 5 mcg/ml COR 2860 and 10 mcg/ml COR 2864.

[4] = tested on: phenylephrine-induced hypertension; test: Alpha-blocking activity in vivo: antagonism of phenylephrine-induced hypertension in rats with spinal cord removal and bivagotomy; conditions: intravenous; for inhibition in vivo at 3 µmol/kg / ED50: Rattus norvegicus; for inhibition in vivo at 3 µmol/kg: read-out: maximum activity (antagonism of phenylephrine-induced hypertension)
Procedure: (§1) Alpha-blocking activity was determined in vivo in mice with the test involving inhibition of mydriasis induced by norepinephrine. […] Thirty minutes later, 0.75 mg/kg norepinephrine was administered intravenously. […] In vivo alpha-blocking activity was also evaluated by determination of antagonism of phenylephrine-induced hypertension. The test products were administered by the intravenous route to rats that had undergone spinal cord removal and bivagotomy according to the technique by J. S. Gillespie and T. S. Muir (Br. J. Pharmac. Chemother. 30:78-87, 1967). The dosage, maximum activity, and the interval after which residual activity was equal to 50% of the maximum activity are presented below: […]

[5] = tested on: glucose tolerance curve; test: Hypoglycemic activity: glucose tolerance curve after an excess of starch; format: in vivo; conditions: one hour after oral 100 mg/kg, excess of starch (2.5 g per kg)
Procedure: (§2) Hypoglycemic Activity: One hour after oral administration of a dose of 100 mg/kg, COR 2839 produced a 21% reduction in the glucose tolerance curve after an excess of starch (2.5 g per kg). One hour after oral administration of a dose of 100 mg per kg, COR 2839 brought about a decrease of 24% in the blook sugar of fasting mice subjected to an excess of glucose (1 g per kg) at the time that the test product was tiven.

[6] = tested on: fasting mice; test: Hypoglycemic activity: blood sugar of fasting mice subjected to an excess of glucose; format: in vivo; conditions: one hour after oral 100 mg per kg, excess of glucose (1 g per kg)
Procedure: as §2

[7] = tested on: passive cutaneous anaphylaxis; test: Passive cutaneous anaphylaxis test in rats; format: in vivo
Procedure: Antiallergy-Antihistamine Activity: In the passive cutaneous anaphylaxis test, COR 2833 and COR 2838 given to rats in an intravenous dose of 10 mg/kg produced 53 and 60% activity, respectively. Under the same conditions, COR 2831 produced 67% activity in an oral dose of 5 mg/kg.

[8] = tested on: isolated guinea pig ileum (histamine); test: Antihistamine activity in vitro: histamine-induced contractions of isolated guinea pig ileum; conditions: histamine 5.10^-7 g/ml
[9] = tested on: isolated guinea pig ileum (serotonin); test: Antiserotonin activity in vitro: serotonin-induced contractions of isolated guinea pig ileum; conditions: serotonin 10^-6 g/ml
Description: Antiserotonin Activity: In vitro, contractions induced in isolated guinea pig ileum by 10^-6 g/ml serotonin were inhibited by COR 2838 in a concentration of 4.10^-7 g/ml and COR 2831 and COR 2833 in a concentration of 2.10^-6 g/ml.

[10] = Toxicity, oral administration to mice; format: in vivo; conditions: mouse, in vivo, oral route, confidence interval in parentheses
[11] = Toxicity, intravenous administration to mice; format: in vivo; conditions: mouse, in vivo, intravenous route
[12] = tested on: Alpha-1; test: Type of antagonism vis-a-vis norepinephrine on isolated rabbit aorta strips (cumulative curve method, Van Rossum, in presence of cocaine); conditions: 30 minutes interval
Procedure: Alpha-1 Blocking Activity: Alpha-1 blocking activity is evaluated in vitro by determination of the antagonism of contractions induced in isolated rabbit aorta strips by norepinephrine used in a concentration of 2.10^-6 mol/1 according to a technique derived from that described by Furchgott and Bhadrakom (J. Pharmacol. 108:129-43, 1953). The IC50 (concentration inhibiting 50% of the contractions) as well as the interval between introduction of the test product and of the […] into the bath, which corresponds to the maximum activity, are presented below for the derivatives according to the present invention: COR 2831, 90 min, 1.10·10^-7 (9.26·10^-8 -1.31·10^-7)mol/1; COR 2837, 30 min, 1.64·10^-6 (1.44·10^-6 -1.85·10^-6) mol/1; COR 2841, 60 min, 1.16·10^-6(9.24·10^-7 -1.46·10^-6) mol/1; COR 2843, 60 min, 9.82·10^ -7 (7.67·10^-7 -1.26·10^-6) mol/1; COR 2838, 60 min, 2.53·10^-6(2.15·10^-6 -2.98·10^-6 mol/1. The type of antagonism that COR 2831 exerts vis-a-vis norepinephrine was determined on the same type of preparation for an interval of 30 minutes, using the cumulative curve method according to Van Rossum in the presence of cocaine.

[13] = tested on: Alpha-1; test: Alpha-1 blocking activity in vitro: antagonism of norepinephrine-induced contractions of isolated rabbit aorta strips; conditions: norepinephrine 2.10^-6 mol/1
[14] = tested on: spontaneously hypertensive rats; test: Antihypertensive activity, spontaneously hypertensive rats, oral, two days, sphygmomanometer; format: in vivo; conditions: 100 mg/kg/day for two days, one hour after gavage
Procedure: Antihypertensive Activity: The test products were administered orally to spontaneously hypertensive rats. Arterial pressure was measured indirectly with a sphygmomanometer.

[15] = tested on: histamine; test: Combined anaphylactic reaction (IgE) and cutaneous histamine reaction in the same rat: histamine reaction; format: in vivo, Sprague-Dawley rat
Procedure: (§3) Antihistamine-antiallergy activity was also determined by combining an anaphylactic reaction (IgE) and a cutaneous histamine reaction in the same animal (Sprague-Dawley rat). Activity was evaluated by the quantity of Evans blue liberated at each reaction site as compared with control animals receiving the administration vehicle. COR 2831 produced the following ED50 values in this test: […]

[16] = tested on: IgE; test: Combined anaphylactic reaction (IgE) and cutaneous histamine reaction in the same rat: IgE reaction; format: in vivo, Sprague-Dawley rat
Procedure: as §3

[17] = Solubility and hygroscopicity of the isolated product; format: physicochemical; conditions: dihydrochloride
Procedure: A solution of 6 g 4-isopropyl-2-methyl-4-methylaminoethoxy phenol and 6 g 1-chloroethyl-4-phenylpiperazine in 10 ml triethylamine and 150 ml ethyl alcohol is heated for 20 hours in a reflux system. The excess ethyl alcohol and triethylamine are evaporated. The residue is taken up in an aqueous solution of hydrochloric acid. The solution obtained is extracted with chloroform. The aqueous phase is alkalized with ammonia and then extracted again with chloroform. After drying and evaporation of the chloroform, 9.3 g of crude product is obtained. This is purified by silica chromatography using as the eluent pure chloroform followed by a mixture of 98% chloroform and 2% methanol. This procedure yield 4.6 g of free base; yield, 42%. The latter is transformed into a hydrochloride by a saturated ethyl ether solution in gaseous hydrochloric acid. This produces a white solid which is filtered and washed with a little ethyl ether.

[18] = tested on: strips of mesenteric veins; test: Anticalcium activity: calcium-induced increment of spontaneous contractions in mesenteric vein strips; conditions: 5.10^-6 g/ml, rats with normal blood pressure
Description: At 5.10^-6 g/ml, COR 2838 inhibited the calcium-induced increment of spontaneous contractions in strips of mesenteric veins from rats with normal blood pressure.

[19] = tested on: left guinea pig auricle; test: Anticalcium activity: electrically stimulated left guinea pig auricle, calcium-induced contraction force; conditions: 25.10^-6 g/ml; 0.6 mM calcium added; 150 beats/min, low calcium Tyrode's solution
[20] = tested on: norepinephrine-induced mydriasis; test: Alpha-blocking activity in vivo: inhibition of norepinephrine-induced mydriasis in mice; conditions: 25 mg/kg, 0.75 mg/kg norepinephrine IV
Procedure: as §1

[21] = mice, intraperitoneal dose of 200 mg per kg

## COc1ccc(N2CCN(CCOc3cc(C)c(O)cc3C(C)C)CC2)cc1 [COR 2860, 5-Isopropyl-2-methyl-4-((4-methoxyphenylpiperazinyl)ethoxy)phenol dihydrochloride]
[1]
  deaths: no deaths
[2]; [21]
  deaths: no deaths
[3]; 2.5 mcg/ml, in the presence of aspirin (1 mcg/ml)
  inhibition at 2.5 µg/mL: 100%
[3]; in the absence of aspirin
  inhibition at 5 µg/mL: 100%
[4]; 3.10^-6 M/kg
  inhibition in vivo at 3 µmol/kg: 39.7%

## Cc1cc(OCCN2CCN(c3cccc(C(F)(F)F)c3)CC2)c(C(C)C)cc1O [COR 2839, 5-Isopropyl-2-methyl-4-(3-trifluoromethylphenyl) piperazinyl-ethoxy)phenol hydrochloride]
[2]; [21]
  deaths: no deaths
[5]
  reduction in the glucose tolerance curve: 21%
[6]
  decrease in the blood sugar: 24%

## Cc1cc(OCCN2CCN(c3ccccc3Cl)CC2)c(C(C)C)cc1O [COR 2864, 5-Isopropyl-2-methyl-4-((2-chlorophenyl)piperazinylethoxy)phenol hydrochloride]
[1]
  deaths: no deaths
[2]; [21]
  deaths: no deaths
[3]; in the presence of aspirin (1 mcg/ml)
  inhibition at 5 µg/mL: 100%
[3]; 10 mcg/ml, in the absence of aspirin
  inhibition at 10 µg/mL: 100%
[4]; 3.10^-6 M/kg
  inhibition in vivo at 3 µmol/kg: 98.6%

## Cc1cc(OCCN2CCN(c3cccc(C)c3C)CC2)c(C(C)C)cc1O [COR 2861, 5-Isopropyl-2-methyl-4-((2,3-dimethylphenylpiperazinyl)ethoxyphenol hydrochloride]
[1]
  deaths: no deaths
[2]; [21]
  deaths: no deaths
[4]; 3.10^-6 M/kg
  inhibition in vivo at 3 µmol/kg: 66.4%

## Cc1cc(OCCN2CCN(c3cccc(Cl)c3)CC2)c(C(C)C)cc1O [COR 2842, 5-Isopropyl-2-methyl-4-((3-chlorophenyl)piperazinylethoxy)phenol hydrochloride]
[1]
  deaths: no deaths
[2]; [21]
  deaths: no deaths
[4]; 3.10^-6 M/kg
  inhibition in vivo at 3 µmol/kg: 35.1%

## COc1ccccc1N1CCN(CCN(C)CCOc2cc(C)c(O)cc2C(C)C)CC1 [COR 2833, 5-Isopropyl-2-methyl-4-((N-methyl N-2-((2-methoxyphenyl)piperazinylethyl)amino)ethoxyphenoldihydrochloride]
[7]; intravenous, 10 mg/kg
  activity in the passive cutaneous anaphylaxis test: 53%
[8]; concentration of 2.10^-6
  inhibition of histamine-induced contractions: 80%
[9]; 2.10^-6 g/ml
  inhibition of serotonin-induced contractions: inhibited

## COc1ccccc1N1CCN(CCOc2cc(C)c(O)cc2C(C)C)CC1 [COR 2831, 5-Isopropyl-2-methyl-4-(2-methoxyphenylpiperazinyl)ethoxy)phenol hydrochloride]
[7]; oral, 5 mg/kg
  activity in the passive cutaneous anaphylaxis test: 67%
[1]
  deaths: no deaths
[10]
  LD50: 1130 mg/kg
[2]; [21]
  deaths: no deaths
[11]
  LD50: 86 mg/kg
[8]; 10^-5 g/ml
  inhibition of histamine-induced contractions: 80%
[12]; Arunlakshama and Schild method
  pA2: 8.59±0.08
[12]; vis-a-vis norepinephrine
  type of antagonism: competitive nature
[9]; 2.10^-6 g/ml
  inhibition of serotonin-induced contractions: inhibited
[13]
  interval between introduction of the test product and of the […] into the bath, which corresponds to the maximum activity: 90 min
[14]; first day
  maximum pressure reduction: 26%
[14]; second day
  maximum pressure reduction: 21%
[15]; IV route
  ED50: 0.37 mg/kg
[15]; Oral route
  ED50: 8 mg/kg
[16]; IV route
  ED50: 0.27 mg/kg
[16]; Oral route
  ED50: 14.4 mg/kg
[4]; 2 min, after 2 min
  ED50: 0.0195 µmol/kg
[4]; 0.5 h, after 30 min
  ED50: 0.304 µmol/kg
[4]; 1 h, after 60 min
  ED50: 0.84 µmol/kg
[4]; 3.10^-6 M/kg
  inhibition in vivo at 3 µmol/kg: 129%
  interval after which residual activity was equal to 50% of the maximum activity: > 2 h

## Cc1cc(OCCN2CCN(c3ccc(F)cc3)CC2)c(C(C)C)cc1O [COR 2841, 5-Isopropyl-2-methyl-4-(p-fluorophenylpiperazinylethoxy)phenol hydrochloride]
[1]
  deaths: no deaths
[4]; 3.10^-6 M/kg
  inhibition in vivo at 3 µmol/kg: 39.8%

## Cc1cc(OCCN2CCN(c3ccccc3C)CC2)c(C(C)C)cc1O [COR 2843, 5-Isopropyl-2-methyl-4-(2-methylphenyl) piperazinylethoxy phenol hydrochloride]
[1]
  deaths: no deaths
[2]; [21]
  deaths: no deaths
[4]; 3.10^-6 M/kg
  inhibition in vivo at 3 µmol/kg: 112%

## Cc1cc(OCCN(C)CCN2CCN(c3ccccc3)CC2)c(C(C)C)cc1O [COR 2838, 5-Isopropyl-2-methyl-4-((N-methyl N-2-(phenylpiperazinyl-ethyl)amino)ethoxy) phenol dihydrochloride]
[7]; intravenous, 10 mg/kg
  activity in the passive cutaneous anaphylaxis test: 60%
[17]
  hygroscopicity: hygroscopic
  solubility in water: soluble in water
[18]
  inhibition of calcium-induced increment of spontaneous contractions: inhibited
[19]
  inhibition of the increment in the contraction force induced by calcium: 50%
[2]; mouse, in vivo, ip, 50 mg/kg
  deaths: no deaths
[8]; 10^-5 g/ml
  inhibition of histamine-induced contractions: 80%
[9]; 4.10^-7 g/ml
  inhibition of serotonin-induced contractions: inhibited
[13]
  interval between introduction of the test product and of the […] into the bath, which corresponds to the maximum activity: 60 min
[4]; 3.10^-6 M/kg
  inhibition in vivo at 3 µmol/kg: 60%

## CC(CCc1ccccc1)NCC(O)c1ccc(O)c(C(N)=O)c1 (centres unmarked) [labetalol, reference compound]
[20]
  inhibition of mydriasis: 58%

## Cc1cc(OCCN2CCN(c3ccccc3)CC2)c(C(C)C)cc1O [COR 2837, 5-Isopropyl-2-methyl-4-phenylpiperazinylethoxyphenol hydrochloride]
[1]
  deaths: no deaths
[2]; [21]
  deaths: no deaths
[4]; 3.10^-6 M/kg
  inhibition in vivo at 3 µmol/kg: 91.1%
